Key:
[1] = tested on: isolated giant neurons of mollusk Planorbarius Corneus; test: physiological functions in isolated giant neurons of mollusk; assay type: cell-based
From the text: Several double derivatives of glutamic acid {E-(CH2)n-E} or containing amino acids (glycine, lysine, histidine, and/or arginine, {E-amino acid-E}) including chelates (Fe2+, Mg2+, or Zn2+) were synthesized and used to study their physiological functions in isolated giant neurons of mollusk Planorbarius Corneus. […] The effect of these substances depended on the length of the amino acid chain (CH2)n between the residues of glutamic acid.
The Hill coefficient (nH) is a central parameter in the study of ligand-protein interactions, which measures the degree of co-operativity between subunits that bind the ligand in multi-subunit proteins. The most common usage of nH is as an estimate of the minimal number of interacting binding sites in positively co-operating systems. The Hill coefficient for tested compounds was about 0.75.

[2] = tested on: patients who had suffered an acute ischemic stroke; details: sublingual 2.0 g/day, five consecutive days, acute ischemic stroke within six hours

glutamic acid-lysine Zn2+-arginin-glutamic acid
effect on neurons depending on chain length between glutamic acid residues ([1]; comparison among double derivatives): maximal effect

NCC(=O)O [glycine]
decrease of 30 day mortality compared to placebo [2]: 20%

N[C@@H](CCC(=O)O)C(=O)O [glutamate]
neuronal response evoked by application ([1]; isolated giant neurons, application/injection of substance): biphasic responses

Source: patent publication US8569448B2, “NMDAR biomarkers for diagnosis and treatment of traumatic brain injury and other disorders” (Grace Laboratories, LLC, priority 2006, dated 2013)
